Reference: ChEMBL document CHEMBL1151043, “The synthesis and antibacterial activity of 2-para-quarternary ammoniomethylphenyl-carbapenems” (1993)

Tests used:
Pseudomonas = test: In vitro antibacterial activity against Pseudomonas relative to thienamycin; assay type: functional
[1] = target: T1, Dipeptidase 1 (Sus scrofa) (UniProt P22412); test: Susceptibility of compound towards porcine Dehydropeptidase-1 relative to imipenem as […] was calculated
T1 sequence (whole entry): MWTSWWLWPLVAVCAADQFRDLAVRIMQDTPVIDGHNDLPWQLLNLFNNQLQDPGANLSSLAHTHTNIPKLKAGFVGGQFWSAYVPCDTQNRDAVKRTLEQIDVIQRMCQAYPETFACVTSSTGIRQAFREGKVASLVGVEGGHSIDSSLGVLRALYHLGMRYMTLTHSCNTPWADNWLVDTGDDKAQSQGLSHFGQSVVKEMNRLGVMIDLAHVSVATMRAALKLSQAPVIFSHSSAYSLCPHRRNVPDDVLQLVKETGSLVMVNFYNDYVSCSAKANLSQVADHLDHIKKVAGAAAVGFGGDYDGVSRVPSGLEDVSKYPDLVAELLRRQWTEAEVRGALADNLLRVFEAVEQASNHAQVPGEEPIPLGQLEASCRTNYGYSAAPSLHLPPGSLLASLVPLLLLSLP

Enterobacter = test: In vitro antibacterial activity against Enterobacter relative to thienamycin; assay type: functional
Proteus = test: In vitro antibacterial activity against Proteus relative to thienamycin; assay type: functional, Proteus sp.
Staphylococcus aureus = test: In vitro antibacterial activity against Staphylococcus aureus relative to thienamycin; assay type: functional
Escherichia coli = test: In vitro antibacterial activity against Escherichia coli relative to thienamycin; assay type: functional
Serratia = test: In vitro antibacterial activity against Serratia relative to thienamycin; assay type: functional
Klebsiella = test: In vitro antibacterial activity against Klebsiella relative to thienamycin; assay type: functional
Enterococcus = test: In vitro antibacterial activity against Enterococcus relative to thienamycin; assay type: functional

Susceptibility [1]	Compound	Relative potency (Pseudomonas)	Relative potency (Enterobacter)	Relative potency (Proteus)	Relative potency (Staphylococcus aureus)	Relative potency (Escherichia coli)	Relative potency (Serratia)	Relative potency (Klebsiella)	Relative potency (Enterococcus)
0.03	C[C@@H](O)[C@H]1C(=O)N2C(C(=O)O)=C(c3ccc(CN4CCCCC4)cc3)C[C@H]12	0.05	4	8.6	0.6	2.5	5.7	1.4	6.1
0.03	C[C@@H](O)[C@H]1C(=O)N2C(C(=O)[O-])=C(c3ccc(C[N+]4(C)CCCCC4)cc3)C[C@H]12	0.03	8	9.8	0.8	5.3	11.3	1.9	14.9
0.11	C[C@@H](O)[C@H]1C(=O)N2C(C(=O)[O-])=C(c3ccc(C[n+]4ccccc4N)cc3)C[C@H]12	0.08	6.1	8	1.3	2.8	11.3	2.6	21.1
0.06	C[C@@H](O)[C@H]1C(=O)N2C(C(=O)[O-])=C(c3ccc(C[n+]4cccc(C#N)c4)cc3)C[C@H]12	0.1	9.8	4.6	0.9	4	11.3	2.1	10.6
0.14	C[C@@H](O)[C@H]1C(=O)N2C(C(=O)[O-])=C(c3ccc(C[n+]4ccc5ccccc5c4N)cc3)C[C@H]12	0.05	2.3	3.7	1.3	2.7	3.7	0.7	9.2
0.04	C[C@@H](O)[C@H]1C(=O)N2C(C(=O)[O-])=C(c3ccc(C[n+]4cccc(C(F)(F)F)c4)cc3)C[C@H]12	0.05	5.7	3.7	1.1	3	13	2.8	8
0.11	C[C@@H](O)[C@H]1C(=O)N2C(C(=O)[O-])=C(c3ccc(C[n+]4ccc(N5CCCCC5)cc4)cc3)C[C@H]12	0.05	2.5	4	1.1	2.8	2.8	0.5	5.7
0.04	C[C@@H](O)[C@H]1C(=O)N2C(C(=O)O)=C(c3ccc(CN4CCCC4)cc3)C[C@H]12	0.07	5.7	8	0.6	2.8	9.8	2.1	12.1
0.09	C[C@@H](O)[C@H]1C(=O)N2C(C(=O)[O-])=C(c3ccc(C[n+]4cccc(N)c4)cc3)C[C@H]12	0.1	11.3	14.9	2.3	7.5	22.6	4.3	17.1
0.09	C[C@@H](O)[C@H]1C(=O)N2C(C(=O)[O-])=C(c3ccc(C[n+]4ccc(N5CCSCC5)cc4)cc3)C[C@H]12	0.04	4.6	7	1.2	5.3	4.9	1.1	4.9
	CC(O)[C@H]1C(=O)N2C(C(=O)O)=C(c3ccc(CN)cc3)C[C@H]12 (some centres undefined)	0.02	11	6.5	1.5	3.5	5.3	3.2	9.2
0.14	C[C@@H](O)[C@H]1C(=O)N2C(C(=O)[O-])=C(c3ccc(C[n+]4ccc(N)cc4)cc3)C[C@H]12	0.2	11.3	16	1.1	7	29.9	2.3	24.3
0.08	C[C@@H](O)[C@H]1C(=O)N2C(C(=O)[O-])=C(c3ccc(C[n+]4ccc5ccccc5c4)cc3)C[C@H]12	0.07	11.3	17.1	1.3	7.5	36.8	2	24.3
0.07	C[C@@H](O)[C@H]1C(=O)N2C(C(=O)[O-])=C(c3ccc(C[n+]4ccccc4)cc3)C[C@H]12	0.1	7	9.8	1.3	3.5	9.8	4.3	13
0.06	C[C@@H](O)[C@H]1C(=O)N2C(C(=O)[O-])=C(c3ccc(C[n+]4ccc(N5CCOCC5)cc4)cc3)C[C@H]12	0.1	9.8	4.6	0.5	4	11.3	2.1	4.6
0.09	C[C@@H](O)[C@H]1C(=O)N2C(C(=O)[O-])=C(c3ccc(C[n+]4cc(N)cc5ccccc54)cc3)C[C@H]12	0.05	3.7	9.2	1.9	3.7	9.2	0.9	12.1
0.33	C[C@@H](O)[C@H]1C(=O)N2C(C(=O)[O-])=C(c3ccc(C[n+]4ccc(N5CCCC5)cc4)cc3)C[C@H]12	0.04	3	7.5	0.6	3.5	7.5	0.8	14.9
0.12	C[C@@H](O)[C@H]1C(=O)N2C(C(=O)O)=C(c3ccc(CN4CCN(C)CC4)cc3)C[C@H]12	0.04	4.9	9.2	0.4	3	7	1	5.7
0.07	C[C@@H](O)[C@H]1C(=O)N2C(C(=O)[O-])=C(c3ccc(C[n+]4cccc5ccccc54)cc3)C[C@H]12	0.07	8.6	13	1.5	6.1	27.9	1.2	24.3
0.08	C[C@@H](O)[C@H]1C(=O)N2C(C(=O)[O-])=C(c3ccc(C[n+]4cccc(C(=O)O)c4)cc3)C[C@H]12								
0.02	C[C@H](O)[C@H]1C(=O)N2C(C(=O)O)=C(c3ccc(CN)cc3)C[C@H]12								
0.03	C[C@@H](O)[C@H]1C(=O)N2C(C(=O)[O-])=C(c3ccc(C[N+]4(C)CCCC4)cc3)C[C@H]12	0.03	7.5	8.6	0.9	3.2	26	2.6	13.9
0.02	C[C@@H](O)[C@H]1C(=O)N2C(C(=O)[O-])=C(c3ccc(C[N+]4(C)CCOCC4)cc3)C[C@H]12	0.02	5.7	6.1	0.8	2	7.5	2.3	10.6
0.13	C[C@@H](O)[C@H]1C(=O)N2C(C(=O)O)=C(c3ccc(CN4CCSCC4)cc3)C[C@H]12	0.03	3.2	7	0.9	2.3	7.5	1.3	9.2
